# Test results taken from patent US20080292688A1, “Liposome and preparation method of the same” (Industrial Technology Research Institute, priority 2003, published 2008).
# Assay: physchem
# Details: Solubility of RA
# Method: Therefore, TPGS is added with ethanol to increase the solubility of the hydrophobic drug in according to the present invention.
compound,measurement,setting,value
"CC1=C(/C=C/C(C)=C/C=C/C(C)=C/C(=O)O)C(C)(C)CCC1 [RA, All-Trans Retinoic Acid]",solubility,aqueous buffer,< 0.1 µg/mL
same,solubility,saline or isotonic,4 µg/mL
